What was measured:
[1] = test system: HCT116 cells, hepatic metastasis; assay: hepatic metastasis model (intrasplenic HCT116); format: in vivo, NSG mice; details: i.p. every other day
Procedure: (B) HCT116 cells were transfected with control KD or RXR-gamma-KD1 siRNA on day 0. […] The mRNA expression of TIMP2 and TIMP3 was analyzed by qRT-PCR on day 5. Data are shown as relative mRNA fold change of SPIR-treated RXR-gamma-KD1 cells to control KD cells (n=3). (C) HCT116 cells were transfected with control KD or RXR-gamma-KD1 siRNA on day 0. […] Data are calculated as the percentage change in distance of migration relative to that of DMSO-treated cells (n=3). (D) HCT116 cells were transfected with control KD, RXR-gamma-KD1, TIMP2-KD or TIMP3-KD siRNA on day 0. […] The number of cells that invaded the ECM was determined after 36 h. Data are expressed as percentage change in tumor invasion relative to that of DMSO-treated cells (n=3). (E) HCT116 cells were transfected with control-KD, TIMP2-KD or TIMP3-KD siRNA on day 0. […] Hepatic metastasis was analyzed by performing bioluminescence imaging on day 10.* P<0.05, ** P<0.005, *** P<0.0001.
Luciferase-expressing HCT116 and HT29 cells were generated by lentiviral transduction of the cells with a CMV promoter-driven luciferase expression construct engineered from the pLL3.7 vector. […] Bioluminescence imaging was performed in a Xenogen imaging system to monitor tumor growth and the data were analyzed using Living Image software (Caliper LifeSciences). […]

[2] = test system: ATM/ATR checkpoint pathway in HCT116 cells; assay: Western blot of ATM/ATR checkpoint pathway; format: cell-based, human
Procedure: Total cell lysates were collected at various time points for Western blot analysis to detect (A) ATM (Ser1981) and ATR (Ser428) phosphorylation and (B) ULBP2 expression. Data shown are representative of three independent experiments. […] Total cell lysates were prepared at various time points (with the same total protein concentration as determined by BCA protein assay) (0 h to 24 h) for phospho-Chk1 by ELISA. Data were expressed as fold change relative to the degree of Chk1 phosphorylation at 0 h (n=3). […] Data are representative of three independent experiments. […] Data are representative of three independent experiments. […] Data shown are representative of three independent experiments. (G) The knockdown efficiencies of various siRNAs in HCT116 cells were evaluated by Western blot analysis. Results are representative of three independent experiments. […] Data shown are representative of three independent experiments. * P<0.05, ** P<0.01, *** P<0.001.

[3] = test system: MMP-1, 7, 10, 12, and 13 in CAL27 cells; assay: RT-qPCR of MMP mRNA; format: cell-based, human; details: 3 days
Source text: Data were normalized to GAPDH mRNA levels and presented as fold change relative to the mRNA expression in DMSO treated cells (n=3). * P<0.005, ** P<0.001.

TIMP2 and TIMP3 [4] = assay: qRT-PCR of TIMP2 and TIMP3 mRNA; format: cell-based, human; details: CAL27 and all the colon cancer cell lines, 56 μM 3 days
Procedure: The number of cells that invaded the ECM was determined after 24 h. Data are expressed as percentage change in tumor invasion relative to that of DMSO-treated cells (n=3). (D) Wound healing by DMSO- and SPIR-treated HCT116, HT29, and CAL27 cells was compared. Data are calculated as the percentage change in distance of migration relative to that of DMSO-treated cells (n=3). […] Tumor xenografts and lung metastases were detected by bioluminescence imaging on day 25. Data are shown as the average total flux (photons/second)±standard deviation (n=8). (F) The lung metastases (arrows) were confirmed by examining lung tissue sections. * P≤0.05, ** P<0.01, *** P<0.005, **** P<0.0001.
For qRT-PCR, total RNA was extracted from untreated or drug-treated tumor cells by using the RNA Clean & Concentrator (Zymo Research). All cDNA was generated by using the SuperScript VILO cDNA Synthesis kit (Life Technologies) and diluted 10-fold for analysis using the 7900HT Fast Real-time PCR System (Applied Biosystems). The data were calculated as the CT of target genes normalized to the CT of GAPDH of each sample. Primer sequences of the target genes were: MICA-F: 5′-[…]-3′, (SEQ ID NO: 14) MICA-R: 5′-[…]-[…]-3′, (SEQ ID NO: 15) MICB-F: 5′-[…]-3′, (SEQ ID NO: 16) MICB-R:5′-CCCTC-[…]-3′, (SEQ ID NO: 17), ULBP1-F:5′-[…]-3′, (SEQ ID NO: 18), ULBP1-R:5′-[…]-3′, (SEQ ID NO: 19), ULBP2-F:5′-[…]-3′, (SEQ ID NO: 20), ULBP2-R:5′-[…]-3′, (SEQ ID NO: 21), ULBP3-F:5′-[…]-TTCG-3′, (SEQ ID NO: 22), ULBP3-R:[…]-3′, (SEQ ID NO: 23), TIMP2-F:5′-[…]-[…]-3′, (SEQ ID NO: 24), TIMP2-R:[…]-3′, (SEQ ID NO: 25), TIMP3-F:5′-[…]-3′, (SEQ ID NO: 26), TIMP3-R:5′-[…]-[…]-3′ (SEQ ID NO: 27), GAPDH-F: 5′-[…]3′ (SEQ ID NO: 28), GAPDH-R: 5′-G-[…]-3′ (SEQ ID NO: 29). […] Differentially expressed transcripts were analyzed by ANOVA on Spotfire program.

TIMP2 and TIMP3 [5] = assay: TIMP2 and TIMP3 ELISA; format: cell-based, human; details: HCT116, 56 μM 3 days

With `CC(=O)S[C@@H]1CC2=CC(=O)CC[C@]2(C)[C@H]2CC[C@@]3(C)[C@@H](CC[C@@]34CCC(=O)O4)[C@H]12` [SPIR, spironolactone] the hepatic tumor metastasis [1] was “significantly suppresses tumor metastasis”, the “ATM and ATR phosphorylation” value ([2]; HCT116, 56 μM, time-dependent) was “induces ATM and ATR phosphorylation” and the “phosphorylated Chk2 and H2A.X” value ([2]; HCT116, 24 h) was “an increase was also detected”. The “expression of Matrix Metalloproteinases (MMP-1, MMP-7, MMP-10, MMP-12, MMP-13)” value [3] was “downregulates expression”, the “mRNA expression of TIMP2 and TIMP3” value (TIMP2 and TIMP3 [4]) was “significantly upregulated” and the “TIMP2 and TIMP3 in culture supernatant” value (TIMP2 and TIMP3 [5]) was “corresponding increases”.

— patent US10286000B2, “Retinoid X receptor-gamma agonists and retinoid X receptor-alpha antagonists for treatment of cancer” (St. Jude Children's Research Hospital, Inc., priority 2013, dated 2019)
